Legend:
Phytophthora infestans = format: in vivo; details: 250 ppm spray, tomato seedling 4-leaf stage, 4th day after inoculation; untreated not less than 60%
[1] = system: Pseudoperonospora cubensis; experiment: Controlling effect against cucumber downy mildew (spray on cucumber seedlings, 250 ppm); format: in vivo; details: 250 ppm spray, cucumber seedling 1-leaf stage, 7th day after inoculation; untreated 60 to 80%
Method: A solution of the compound in acetone was diluted with water to 250 ppm, and the solution was sprayed to the cucumber seedling (breed: Sagamihangbak, two per plastic pot having a diameter of 7.5 cm) at 1-leaf stage in an amount of 10 mL of the compound/pot. After air-drying, the pot was transferred to a moist chamber provided in the greenhouse, and inoculated by spray with a zoosporic suspension of Pseudoperonospora cubensis. On the 7th day after inoculation the infected area rate for the leaves was examined. Evaluation was carried out by the following criteria.
The infected area rate for untreated groups in the examination was 60 to 80%.

Plasmopara viticola = experiment: Controlling effect against grape downy mildew (leaf disk immersion, 250 ppm); format: in vivo; details: grape leaf disk immersed 3 hours, 10th day after inoculation, untreated 60 to 70%
Method: The developed leaf of grape seedling (breed: Cabernet Sauvignon) grown in 1/2000 a pot was cut and prepared a leaf disk having a diameter of 32 mm. A solution of the compound in acetone was diluted with water to 250 ppm, and the leaf disk was immersed for 3 hours. The disk was taken from the agent solution, subjected to air-drying, and then inoculated by spray with a zoosporangia suspension of Plasmopara viticola. The test disk was incubated at 18° C. for 12 hours in a light-dark light cycle. On the 10th day after inoculation the infected area rate for the leaf disk was examined. Evaluation was carried out by the following criteria. The infected area rate for the untreated groups in the examination was 60 to 70%.

Pyricularia oryzae = format: in vivo; details: 250 ppm spray, rice plant 4-leaf stage, 7th to 10th days after inoculation; untreated not less than 60

| SMILES | Effect: controlling effect against tomato late blight (infected area rate) (Phytophthora infestans) | melting point [°C] | Effect: controlling effect against cucumber downy mildew (infected area rate) [1] | Effect: controlling effect against grape downy mildew (infected area rate) (Plasmopara viticola) | Effect: controlling effect against rice blast disease (number of lesions per pot) (Pyricularia oryzae) |
| --- | --- | --- | --- | --- | --- |
| CC(C)OC(=O)N[C@@H](C)C(=O)N[C@H](CNC(=O)c1cc2ccccc2o1)C(C)C [Compound No. 599, N-[1-(S)-[[(benzofuran-2-carbonyl)amino]methyl]-2-methylpropyl]2-(S)-[(1-methylethyloxycarbonyl)amino]propionamide] | A (Infected area rate of less than 5%) | 146.4 | A (the infected area rate of less than 5%) | A (the infected area rate of less than 5%) |  |
| Cc1ccc(C(=O)NC[C@@H](NC(=O)Oc2ccccc2)C(C)C)cc1 [Comparative Compound, reference compound] | C (Infected area rate of not less than 50%) |  | C (the infected area rate of not less than 50%) | C (the infected area rate of not less than 50%) | A (The number of lesions of less than 5) |
| CC(C)OC(=O)N[C@H](C(=O)N[C@H](CNC(=O)c1cccc(Cl)n1)C(C)C)C(C)C [Compound No. 953, N-[1-(S)-[[(6-chloropyridine-2-carbonyl)amino]methyl]-2-methylpropyl]3-methyl-2-(S)-[(1-methylethyloxycarbonyl)amino]butyramide] | A (Infected area rate of less than 5%) | 204.9 | A (the infected area rate of less than 5%) | A (the infected area rate of less than 5%) |  |
| CC[C@H](C)[C@@H](CNC(=O)c1ccc2ccccc2n1)NC(=O)[C@@H](NC(=O)OC)C(C)C [Compound No. 698, N-[1-(S)-[[(quinoline-2-carbonyl)amino]methyl]-2-(S)-methylbutyl]2-(S)-(methyloxycarbonylamino)-3-methylbutyramide] | A (Infected area rate of less than 5%) | 174.6 | A (the infected area rate of less than 5%) | B (the infected area rate of 5% to less than 50%) |  |
| CC(C)[C@@H](CNC(=O)c1cc2ccccc2o1)NC(=O)[C@H](C)NC(=O)OC(C)(C)C [Compound No. 601, N-[1-(S)-[[(benzofuran-2-carbonyl)amino]methyl]-2-methylpropyl]2-(S)-[(1,1-dimethylethyloxycarbonyl)amino]propionamide] | B (Infected area rate of 5% to less than 50%) | 163.1 | A (the infected area rate of less than 5%) | B (the infected area rate of 5% to less than 50%) |  |

— US20070244153A1 (priority 2004, published 2007)
